The test system of series [1] is human erythrocytes. The settings on record: erythrocytes cultured ~18 hours with RiBn.
Description: B. Bright-field microscopy (top panel) and flow cytometry analysis (Forward Scatter vs Side Scatter, bottom panel) of erythrocytes cultured in the presence or absence of RiBn for ˜18 hours. Quantification was conducted once.
Series [2] deals with PfROM4. As to the kind of experiment: Heterologous cell-based rhomboid cleavage assay in co-transfected HEK293 cells, EBA175 cleavage by PfROM4. Also on record: species or system P. falciparum. The settings on record: western of conditioned media. The text has this:
(§1) FIG. 4A-F illustrates RiBn is a non-toxic, selective inhibitor of only PfROM4. A. Chemical structure of one embodiment of RiBn, a peptide of 10 aa with boronate warhead (SEQ ID NO: 3). Ac denotes an N-terminal acetyl moiety, while the C-terminal boronate warhead is on the right. B. Western blot analysis of EBA175 and AMA1 cleavage by PfROM4 in a heterologous cleavage assay. Co-transfected HEK293 cells were conditioned in the presence of absence of the indicated concentrations of RiBn. Cells transfected with AMA1 were conditioned in the presence or absence of the metalloprotease inhibitor (WI) BB-94 to reduce background cleavage by endogenous cellular proteases. N-terminal cleavage products were released into media (anti-GFP, top panels). Lysates were probed for expression of substrate (anti-GFP, middle panel) and enzyme (anti-HA, bottom panel). Quantification of PfROM4 inhibition by RiBn (right panel, mean±s.e.m.). […] Inhibition was analyzed in three independent biological experiments. […] Flow cytometry analysis (calcein AM fluorescence) of the same cells (right panels). […] For data in D and E, toxicity analyses were conducted in three independent biological experiments (once for each assay readout). […]
(§2) Cleavage of substrates and the activity of enzymes was determined in a slightly modified heterologous cleavage assay. […] Two-color quantitative westerns were converted to greyscale.

Series [3] concerns the target T1, human rhomboid enzyme (Homo sapiens, UniProt Q9NX52).
T1 construct: expressed in transfected cells; host or cells: HEK293T (ATCC CRL-11268), pcDNA3.1
T1 sequence (Q9NX52 1-303): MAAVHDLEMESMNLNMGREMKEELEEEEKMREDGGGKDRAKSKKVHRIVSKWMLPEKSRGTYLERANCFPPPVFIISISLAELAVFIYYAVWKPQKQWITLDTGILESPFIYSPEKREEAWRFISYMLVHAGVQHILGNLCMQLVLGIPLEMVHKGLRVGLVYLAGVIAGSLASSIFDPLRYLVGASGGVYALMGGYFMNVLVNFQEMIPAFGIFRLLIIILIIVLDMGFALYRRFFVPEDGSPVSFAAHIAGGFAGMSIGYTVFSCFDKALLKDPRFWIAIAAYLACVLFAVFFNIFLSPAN
Description: Heterologous cell-based rhomboid cleavage assay, human rhomboid enzyme. The settings on record: transfection-based assay, analyzed in parallel.
From the text: as §1, §2

For series [4], the system named is HEK293 cells. Description: LIVE/DEAD viability of RiBn-treated HEK293 cells (fluorescence microscopy and flow cytometry). The format is cell-based, human. The following applies: highest concentrations.
From the text: as §1, with “Lysates were probed for expression of substrate (anti-GFP, middle panel) and enzyme (anti-HA, bottom panel).” left out
(§3) Cell viability of RiBn-treated HEK293 cells was determined with a LIVE/DEAD Viability/Cytotoxicity Kit (Molecular Probes). Calcein AM and ethidium homodimer-1 stained cells were imaged on an inverted fluorescence microscope (Nikon) with the appropriate bandpass filters. […]
A general note: In flow cytometry, cells or beads pass a laser one at a time.

Assay in series [5]: as above
The format is cell-based, human. The following applies: human, highest RiBn dose, ~24 hours, calcein AM, read-out: cell viability by flow cytometry.
From the text: as §1, with “Lysates were probed for expression of substrate (anti-GFP, middle panel) and enzyme (anti-HA, bottom panel).” left out
as §3

In series [6] the test system is P. falciparum merozoites. As to the kind of experiment: P. falciparum invasion assay with synchronized schizont-stage parasites. The format is cell-based. As for the experimental part: (§4) Inhibitor potency was verified in three independent biological experiments. […] Quantification was conducted once. C.
(§5) Asexual P. falciparum 3d7 parasites (kind gift of Dr David Sullivan, Johns Hopkins School of Public Health) were cultured in human erythrocytes (O-donor, purchased from Interstate Blood Bank, Inc.) under standard conditions. Sorbitol synchronization was performed ˜1/week or as needed for experiments. For invasion assays, schizont-stage parasites were magnetically purified as previously described (MACS Miltenyi Biotec) and incubated at the appropriate parasitemia (0.2% for dose-response curves) in a 96-well plate in the presence or absence of the peptide-warhead inhibitors at 1.5% hematocrit. Flow cytometry analysis for absolute parasitemia determination and growth characterization was performed by removing a small volume of culture, washing cells in 1×PBS, resuspending them in 1×PBS containing 0.1 μg/mL acridine orange and monitoring FL1/FL3 fluorescence on a FACSCalibur instrument (BD Biosciences). Methanol-fixed, acridine orange stained parasitized erythrocytes were imaged on an inverted fluorescence microscope (Nikon) with bandpass filters. Images were overlaid in Photoshop CC (Adobe). All flow cytometry data were analyzed in FlowJo.

The subject of series [7] is HEK293 cells. Description: Cell cycle analysis of HEK293 cells by flow cytometry (propidium iodine). The settings on record: 24 hours. The format is cell-based, human.
Series [8] relates to P. falciparum 3d7 parasites. Description: P. falciparum growth (parasitemia) on human erythrocytes, flow cytometry with acridine orange. The format is cell-based. The settings on record: for inhibition of parasite growth: P. falciparum on human red blood cells. The method, then:
as §4
FIG. 6A-6C illustrates RiBn cures blood stage cultures of malaria by iteratively inhibiting parasite invasion and retarding growth. A. Blood stage cultures containing 1% well synchronized schizont stage parasitized erythrocytes were cultured in the presence or absence of 0.3 mM RiB, as indicated, and analyzed at various time points via flow cytometry (acridine orange, top panels) and fluorescent microscopy (acridine orange staining, bottom panels). After 18 hours of culturing, RiBn was washed out of one replicate of the RiBn treated cultures and monitored as above, as indicated. […] C. Quantification of absolute parasitemia at various time points in blood stage parasite cultures treated with the indicated concentrations of RiBn. In a-c, growth defect was confirmed in three independent biological experiments, while the parallel washout was conducted once and is shown.
as §5

The subject of series [9] is other five rhomboid proteases known to reside on the cell surface. Description: Heterologous cell-based rhomboid cleavage assay, other cell surface rhomboid enzymes and their substrates.
From the text: as §1, §2

In series [10] the test system is PfROM1. As to the kind of experiment: Heterologous cell-based rhomboid cleavage assay, PfROM1. Also on record: species or system P. falciparum. The settings on record: highest RiBn concentration, transfection-based assay.
From the text: as §1, §2

Series [11] concerns the target GlpG (Escherichia coli, UniProt P09391). The following applies: GlpG in living E. coli cells, side-by-side comparison.
Description: F. Inhibition of endogenous GlpG activity in living E. coli cells grown in liquid culture. Δ is the negative control in which GlpG was deleted from the E. coli genome. Peptide inhibitors were added at the indicated concentrations directly to growing cultures. Shown are quantitative infrared anti-flag westerns, with the top band being the TatA-Flag uncut substrate, and the lower band being the cut product. Quantification of cleavage was used to calculate the EC50 concentrations (graph on right, mean±s.e.m.). Inhibition was analyzed in three independent biological experiments, each with a full spectrum of concentrations per compound.
Dose-response curves were analyzed in the R environment. Curve fitting and graphing was performed with the DRC package using data appropriate models. EC50 values are depicted along with the standard error of the fit.

The source of these data is patent US11518783B2, “Peptides having tetrahedral mimicking groups as inhibitors of rhomboid proteases” (priority 2016, dated 2022).

A word on the viability: it is a per cent measure of how many cells are alive, often set against a control.

Peptide text beside a SMILES is read from it. * marks the point of attachment. CHO = C-terminal aldehyde in place of the boronate, O=C*; boroAla = C[C@H](N*)B(O)O Where only a bound is given, the exact number is not on record here.

Chain of GlpG (P09391 whole entry): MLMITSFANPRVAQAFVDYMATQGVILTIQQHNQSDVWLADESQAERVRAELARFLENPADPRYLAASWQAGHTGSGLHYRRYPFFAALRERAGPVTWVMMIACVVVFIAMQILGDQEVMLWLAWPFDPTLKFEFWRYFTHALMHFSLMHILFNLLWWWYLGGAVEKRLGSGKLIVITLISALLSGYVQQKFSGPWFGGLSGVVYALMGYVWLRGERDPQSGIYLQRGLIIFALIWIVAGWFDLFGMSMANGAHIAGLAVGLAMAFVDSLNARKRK

For `CSCC[C@H](NC(=O)[C@H](CO)NC(=O)[C@H](CCCNC(=N)N)NC(=O)[C@H](Cc1ccccc1)NC(=O)[C@H](CCCNC(=N)N)NC(=O)[C@H](CCCCN)NC(C)=O)C(=O)N[C@@H](CCC(N)=O)C(=O)N[C@@H](Cc1ccc(O)cc1)C(=O)N[C@@H](CO)C(=O)N[C@@H](C)B(O)O` [RiBn] (Ac-KRFRSMQYS-boroAla), the “host cell (red blood cell) viability” value in series [1] is listed as “not affecting host cell viability”. Besides, the “inhibition of EBA175 processing by PfROM4” value in [2] is “inhibited EBA175 processing by PfROM4 in a dose-dependent manner”. Further, the “inhibition of the human rhomboid enzyme” value in series [3] is on record as “no inhibitory effect”. The “cell viability in fluorescence-based live/dead cell assay” value in series [4] was “no change in cell viability”. Besides, the viability in series [5] is 92.4%. Moreover, the “maximal inhibition of merozoite invasion” value in series [6] (first round of infection, flow cytometry) is given as about 50%. The “inhibition of merozoite invasion of red blood cells” value in series [6] (synchronized cultures, ~24 hours) is recorded as “dose-dependent inhibition of merozoite invasion”. Moreover, the “adherence, growth, or cell cycle distribution of treated versus untreated cells” value in series [7] was “no apparent change”. Moreover, the “inhibition of parasite growth” value in [8] is listed as “dose-dependent inhibition of parasite growth”. For the same compound, in series [8] (delayed parasites through lifecycle stages), the “effect on other parasite stages including egress” value is given as “minimally or not affected”. Moreover, the “growth of parasites that invaded in presence of RiBn” value in [8] (subsequent time points, versus vehicle-treated controls) is given as “grew considerably slower than vehicle-treated controls”. For the same compound, the “effect of washing out RiBn after the first round of invasion” value in [8] (washout after 18 hours, 0.3 mM) was “rescued parasite growth”. The “effect on cell viability or function (translation, glycosylation, trafficking, secretion of substrates)” value in [9] (transfected HEK293 cells, highest RiBn concentrations) is reported as “no apparent effect on cell viability or function”. Besides, the “inhibition of the other five cell surface rhomboid proteases” value in series [9] (transfection-based assay, analyzed in parallel) is listed as “no inhibitory effect”. Besides, in series [10], the “inhibition of PfROM1” value is listed as “completely unaffected”.
Take Ac-VRMA-B(OH)2: in series [11], the “increase in potency relative to the aldehyde of the same tetrapeptide” value is over 100 fold and the “increase in potency relative to the chloromethylketone of the same tetrapeptide” value is over 400 fold.
Regarding “peptide-aldehyde: same peptide sequence as RiBn but replacing the boronate with an aldehyde moiety (Ac-KRFRSMQYSA-{CHO}; also: aldehyde moiety replacing the boronate, place not given here) [reference compound]”, in series [2], the “inhibition of EBA175 processing by PfROM4” value was “completely abolished PfROM4 inhibition”. Besides, the “inhibition of parasite growth” value in [8] was “abolished inhibition”.
